{"source": "patent US20220280644A1", "about": "“\"TRPswitch\" - A STEP FUNCTION CHEMO-OPTOGENETIC LIGAND” (UNIVERSITY OF UTAH RESEARCH FOUNDATION, priority 2019, published 2022)", "key": {"[1]": {"tested_on": "wild-type zebrafish larvae", "assay": "Behavioral assay: light-induced motion response of wild-type larvae", "type": "in vivo, Zebrafish (Danio rerio)", "description": "A total of 1,000 compounds were selected from the ChemBridge Corp. catalog. Compounds were dissolved in DMSO at a stock concentration of 1 μg/μL (˜1.5 mM). The library was screened at a 1:100 dilution in E3 solution for a final concentration of ˜15 μM. Negative controls were treated with an equal volume of DMSO. Groups of 3 larvae at 3 days post fertilization (dpf) were distributed into the wells of 96-well clear bottom black microplates (07-200-567; Fisher Scientific) in 150 μL E3 before the addition of small molecules. Stock solutions of compounds were added directly to zebrafish in the wells of a 96 well plate (Corning 3631), mixed, and allowed to incubate for 1 h in the dark at 28.5° C. prior to behavioral evaluation in the behavioral assay. Ordering information: 1 (5533696; ChemBridge); 3 (5538408; ChemBridge).\nLarvae in each of the wells were exposed to four 1 second flashes of light stimulus in the following order: 450-500 nm (WL1), 415-455 nm (WL2), 352-402 nm (WL3), white light (WL4), with a 5 second inter-stimulus interval. Digital video recording was performed for 5 seconds before the first light stimuli and continued throughout the stimulation sequence. Band pass filters (Semrock FF02-475/50, FF02-435/40, FF01-377/50) were used to restrict the excitation light to the indicated wavelengths. […] 290 frames of digital video were recorded per well at 10 FPS using an EMCCD camera (C9100; Hamamatsu) mounted on an inverted compound microscope (AxioObserver A1; Zeiss) with a NA 0.03 1.25× objective and a barrier with a 0.7 mm diameter opening to restrict light scattering to the sample. MetaMorph software (Molecular Devices) was used to control the execution of TTL signals and camera capture using the built-in stream acquisition with trigger function. Each video was saved for review. Light stimuli were generated with an ozone free 300-Watt xenon bulb housed in a Lambda LS illuminator (Sutter Instruments). A dichroic mirror (T510LPXRXT; Chroma) was used for appropriate excitation of samples and bright field acquisition. Schott longpass absorption glass (RG610; Chroma) was added in the transmitted light path to reduce unwanted excitation to the well and to provide sufficient light for video recording. All behavioral experiments were conducted at room temperature. […]\nTo analyze digital video recordings, custom MetaMorph software scripts were used to automatically threshold the video to identify the area of larvae in each frame. Threshold images of the frames after each light activation event were overlaid to calculate a new combined threshold area. The motion index was calculated as the percentage change between the threshold area in the frame right before light activation and the new combined threshold area. This motion index correlates with the overall amount of motion in the well."}, "Trpa1b": {"tested_on": "Trpa1b", "assay": "Heartbeat interruption in larvae expressing Trpa1b in cardiomyocytes", "type": "in vivo, zebrafish", "details": "20 μM", "description": "Heartbeat interruption experiments were performed in vivo on 2 dpf Tg(cm/c2:Trpa1b-2A-EGFP) larvae in a Trpa1b^−/− background. Larvae were pretreated with 20 μM of TRPswitch-A or TRPswitch-B in E3 at a final concentration of 1% DMSO for 1 h in the dark at 28.5° C. before experimental manipulation. Immediately prior to the onset of experiments, E3 solution was replaced with 0.2 mg/mL tricaine (Sigma, A5040) in E3 for anesthetizing the larvae. Violet light (352-402 nm) and green light (500-600 nm) were used for E to Z and Z to E isomerization, respectively. Violet and green light excitation were achieved using a band pass filter FF01-377/50 and an et500lp long pass barrier filter, respectively, together with a t600plxxr dichroic mirror and a 300-Watt xenon bulb light source (Sutter Instrument). Experiments were performed using a NA 0.6 40× air objective at room temperature. The zebrafish heart in the whole field of view was illuminated with 1 s violet light followed by various lengths of green light as indicated. Ventricle width measurement was performed using the ImageJ ‘measure’ function on the widest outer ventricle width every 100 ms."}, "[2]": {"assay": "Photostationary state (PSS) determination", "type": "physicochemical", "description": "[…] In the latter case, the pure Z isomer spectrum was estimated using methods described in previous publications."}, "human TRPA1": {"target": "T1, human TRPA1 (Homo sapiens, UniProt O75762)", "T1 construct": "2A peptide (remnant stays on the channel) (C); EGFP (separated at the 2A site) (C, cleaved yes); expressed in transfected cells; host or cells: Rohon-Beard neurons of Trpa1b−/− zebrafish embryos, in vivo", "T1 sequence (O75762 whole entry)": "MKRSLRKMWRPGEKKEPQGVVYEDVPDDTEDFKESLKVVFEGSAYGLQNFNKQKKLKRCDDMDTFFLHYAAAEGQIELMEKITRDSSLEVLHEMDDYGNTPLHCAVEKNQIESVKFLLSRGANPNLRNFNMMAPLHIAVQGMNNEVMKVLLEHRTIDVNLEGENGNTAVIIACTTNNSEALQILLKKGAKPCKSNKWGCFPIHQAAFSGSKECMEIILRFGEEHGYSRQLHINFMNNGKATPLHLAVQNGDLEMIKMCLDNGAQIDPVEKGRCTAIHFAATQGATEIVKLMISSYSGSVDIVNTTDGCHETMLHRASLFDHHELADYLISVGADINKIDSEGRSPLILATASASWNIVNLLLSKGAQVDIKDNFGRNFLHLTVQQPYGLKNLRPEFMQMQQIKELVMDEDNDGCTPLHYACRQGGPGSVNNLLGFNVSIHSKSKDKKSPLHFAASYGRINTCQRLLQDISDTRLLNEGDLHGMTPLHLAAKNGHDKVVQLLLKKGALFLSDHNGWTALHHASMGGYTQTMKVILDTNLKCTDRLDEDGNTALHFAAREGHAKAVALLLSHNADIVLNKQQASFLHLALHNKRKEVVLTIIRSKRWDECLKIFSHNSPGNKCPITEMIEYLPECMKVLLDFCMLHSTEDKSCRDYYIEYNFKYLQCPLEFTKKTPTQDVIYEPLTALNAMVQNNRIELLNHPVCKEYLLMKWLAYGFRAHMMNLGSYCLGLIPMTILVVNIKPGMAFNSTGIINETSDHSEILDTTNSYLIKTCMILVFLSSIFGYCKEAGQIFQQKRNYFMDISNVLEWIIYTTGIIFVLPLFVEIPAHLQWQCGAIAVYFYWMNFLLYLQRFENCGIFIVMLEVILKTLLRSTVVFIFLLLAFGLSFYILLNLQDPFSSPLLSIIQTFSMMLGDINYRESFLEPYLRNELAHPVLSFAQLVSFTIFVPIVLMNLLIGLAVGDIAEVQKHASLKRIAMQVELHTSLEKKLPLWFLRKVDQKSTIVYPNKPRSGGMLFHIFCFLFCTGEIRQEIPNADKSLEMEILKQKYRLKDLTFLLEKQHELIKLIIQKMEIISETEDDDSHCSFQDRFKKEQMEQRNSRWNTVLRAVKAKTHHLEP", "assay": "Rescue experiment, Trpa1b−/− embryos expressing hTRPA1 in Rohon-beard neurons", "type": "in vivo, zebrafish", "details": "20 μM, motion within 5 s after 1 s WL3", "description": "For Trpa1b ohnolog and paralog rescue experiments, Trpa1b^−/− embryos were injected with ngn1:zTrpa1b-2A-mCherry (partial plasmid sequence in SEQ ID NO:5), ngn1:zTrpa1a-2A-mCherry, ngn1:hTRPA1-2A-EGFP or ngn1:mTRPA1-2A-mCherry at the 1-cell stage for mosaic Rohon-beard neuron expression. Embryos were screened at 2 dpf for fluorescent expression in Rohon-beard neurons, incubated with 20 μM TRPswitch-B for 1 hr and decapitated posterior to the eyes right before experiments. NA 0.25 5× objective and 1 s WL3 light illumination was used.\nTo test the potential cross activity of TRPswitch-B on the zebrafish ohnolog Trpa1a and on mammalian orthologs, zebrafish Trpa1a, mouse TRPA1 or human TRPA1 were transiently re-expressed in the Rohon-beard neurons of mutant Trpa1b^−/− zebrafish and performed light-induced motion response experiments in the presence of TRPswitch-B. Rescue experiments were performed in Trpa1b^−/− zebrafish with transient mosaic re-expression of zebrafish Trpa1b (zTrpa1b), zebrafish Trpa1a (zTrpa1a), mouse TRPA1 (mTRPA1) or human TRPA1 (hTRAP1) in Rohon-beard neurons. Embryos were pre-treated with 20 μM TRPswitch-B and decapitated right before light stimulation to eliminate the light response mediated by the retina (Table 5). […]"}, "[3]": {"details": "UV-Vis spectroscopy in 30% water:DMSO, extrapolated pure Z spectrum, listed as TRPswitch-B"}}}
{"compound": "Cc1nn(C)c(C)c1/N=N/c1ccc(NC(=O)c2cccs2)cc1NC(=O)c1cccs1", "note": "[Compound 9, (E)-N,N′-(4-((1,3,5-trimethyl-1H-pyrazol-4-yl)diazenyl)-1,3-phenylene)bis(thiophene-2-carboxamide)]", "values": [{"measurement": "light-induced motion response (in vivo activity)", "setting": "[1]; 3 dpf wild-type larvae, 1 s flashes WL1-WL4", "value": "comparable biological response to TRPswitch-A"}, {"measurement": "effect of DABCO on light-induced motion response", "setting": "[1]; DABCO, singlet oxygen quencher", "value": "no effect"}, {"measurement": "ventricle heartbeat after 1 s violet light", "setting": "Trpa1b; 1 h pre-incubation", "value": "could be stopped"}, {"measurement": "ventricular rhythm after 1 s green light", "setting": "Trpa1b; after violet light", "value": "re-stored"}, {"measurement": "365 nm PSS (E-Z)", "setting": "[2]; 1H NMR in DMSO-d6", "value": 92, "unit": "% Z"}, {"measurement": "420 nm PSS (E-Z)", "setting": "[2]; 1H NMR in DMSO-d6", "value": 55, "unit": "% Z"}, {"measurement": "495 nm PSS (Z-E)", "setting": "[2]; 1H NMR in DMSO-d6", "value": 86, "unit": "% E"}, {"measurement": "Estimated 365 nm PSS (E-Z)", "setting": "[2]; [3]", "value": 92, "unit": "% Z"}, {"measurement": "Estimated 495 nm PSS (Z-E)", "setting": "[2]; [3]", "value": 100, "unit": "% E"}, {"measurement": "% response", "setting": "human TRPA1", "value": 0, "unit": "%"}]}
